Measurements as given in US20250309306A1, “Cationic Viologen Derivatives and Use Thereof in Redox Flow Batteries” (priority 2024, published 2025).

Key:
Format in all cases: physicochemical
[1] = Cyclic voltammetry, repeated charging-discharging cycles (integrated area over 100 scans)
[2] = Diffusion coefficient by Levic plot, rotating disk electrode
Procedure: The diffusion coefficient of molecules was measured using Levic plot, obtained using a rotating disk electrode (RDE) setup according to standard procedures.

[3] = Pulse voltammetry (SWV/DPV), three-electrode cell: redox potential of first reduction
Reaction rate (k°) = assay: Reaction rate (k°)
[4] = Water solubility by quantitative NMR; settings: for solubility: water (D2O), water, thermodynamic from solid
Procedure: The compound to be tested was dissolved in 100 μl D2O until saturation was reached. Any undissolved compound was filtered off and the filtrate was combined with a standard solution containing a known amount of a calibration compound as an internal reference. The sample is investigated using 1H NMR. […] The solubility of the compound to be tested was then calculated from a relative concentration determination based on the known calibration compound concentration.

[5] = Table 3, comparison of transquat, diquat and annulated diquat
[6] = Table 2, Ag/AgCl reference, +0.200 V offset applied, glassy carbon working electrode

Row | SMILES | Capacity over 100 cycles ([1]; Table 3) | Diffusion coefficient (D, in cm^2s^−1) ([2]; Table 3) | Redox Potential (V vs SHE) [3, 5] [V vs SHE] | solubility ([4]; Table 3, at 20° C.) [mM] | Capacity over 100 cycles ([1]; Table 2) | Diffusion coefficient (D, in cm^2s^−1) ([2]; Table 2) | Redox Potential (V vs SHE) [3, 6] [V vs SHE] | Solubility in water (M, at 20° C.) ([4]; Table 3, at 20° C.) [mM] | solubility ([4]; Table 2, at 20°C) [mM] | Solubility in water (M, at 20°C) ([4]; Table 2, at 20°C) | Reaction Rate (k°, in cm/s) (Reaction rate (k°); Table 3) [cm/s] | Reaction Rate (k°, in cm/s) (Reaction rate (k°); Table 2) [cm/s]
1 | [Br-].[Br-].c1cc2c3[n+](c1)CC[n+]1cccc(c1-3)CC2 [reference compound] | 0.98 | 9.87 × 10^−6 cm^2s^−1 | −0.42 | > 1500 | – | – | – | – | – | – | 0.00768 | –
2 | [Cl-].[Cl-].c1cc2c3[n+](c1)CCCc1ccc[n+](c1-3)CCC2 | – | – | – | – | 0.98 | 1.63 × 10^−5 cm^2s^−1 | −0.64 | – | > 1500 | – | – | 0.0194
3 | COc1cc[n+]2c3c1CC[n+]1ccc(OC)c(c1-3)CC2.[Cl-].[Cl-] | – | – | – | – | 0.80 | 2.5 × 10^−6 cm^2s^−1 | −0.80 | – | – | Low | – | 0.00414

More lines, main results first:

Row | Capacity over 100 cycles ([1]; Table 3) | Diffusion coefficient (D, in cm^2s^−1) ([2]; Table 3) | Redox Potential (V vs SHE) [3, 5] [V vs SHE] | solubility ([4]; Table 3, at 20° C.) [mM] | Capacity over 100 cycles ([1]; Table 2) | Diffusion coefficient (D, in cm^2s^−1) ([2]; Table 2) | Redox Potential (V vs SHE) [3, 6] [V vs SHE] | Solubility in water (M, at 20° C.) ([4]; Table 3, at 20° C.) [mM] | solubility ([4]; Table 2, at 20°C) [mM] | Solubility in water (M, at 20°C) ([4]; Table 2, at 20°C) | SMILES | Reaction Rate (k°, in cm/s) (Reaction rate (k°); Table 3) [cm/s] | Reaction Rate (k°, in cm/s) (Reaction rate (k°); Table 2) [cm/s]
4 | 0.98 | 1.62 × 10^−5 cm^2s^−1 | −0.48 | – | 0.98 | 1.62 × 10^−5 cm^2s^−1 | −0.48 | >1500 | > 1500 | – | [Cl-].[Cl-].c1cc2c3[n+](c1)CCc1ccc[n+](c1-3)CC2 | 0.00764 | 0.00764
5 | – | – | – | – | 0.99 | 1.41 × 10^−5 cm^2s^−1 | −0.80 | – | > 1500 | – | CCOc1cc2c3[n+](c1)CCc1cc(OCC)c[n+](c1-3)CC2.Cl | – | 0.00615
6 | – | – | – | – | 0.95 | 6.45 × 10^−6 cm^2s^−1 | −0.59 | – | ~1000 | – | Cc1cc2c3[n+](c1)CCc1cc(C)c[n+](c1-3)CC2.[Cl-].[Cl-] | – | 0.016
